Data from patent US20260240860A1, “COMPOSITION FOR REJUVENATION OF SENESCENT CELLS OR DELAY OR PREVENTION OF CELLULAR SENESCENCE” (LONO JAEYAK INC., priority 2022, published 2026).

Test system: senescent human skin fibroblasts collected from newborn skin
Assay: Experiment to confirm cell division (Hoechst assay)
Format: cell-based
Settings: for cell division results when the named compound replaced KU60019 (ATM kinase inhibitor) or ABT263 (Bcl-2 inhibitor) in the combinations: FIGS. 8 to 10; for cell rejuvenation effect of the five-component combination with the named compound as ATM kinase inhibitor or Bcl-2 inhibitor: FIGS. 24 and 25, ATM kinase inhibitor+ROCK inhibitor+Bcl-2 inhibitor+SIRT1 activator+AMPK activator treated together
Experimental: The human dermal fibroblasts used in the experiment were samples collected from newborn skin (PCS-201-010; ATCC), and the cells were cultured in a culture solution of DMEM [25 mM glucose, 10% FBS (S001-01; Welgene), 100 units/ml penicillin, 10 μg/ml streptomycin, and 25 ng/ml amphotericin B (LS203-01; Welgene)] under the conditions of 37° C. and 5% CO2.
After the 48th passage, ½ of the cells were cultured. When the population doubling time (DT) exceeded 14 days and the senescence-associated β-galactosidase (SA-β) ratio exceeded 95%, experiments were conducted by considering the cells as sufficiently aged.
The cell division ability of the senescent cells treated with the compounds in the above examples and comparative examples was investigated.
The cells to be used in the experiment were transplanted into a plate three days before the experiment. The cells treated with the compounds were stained with 10 μg/ml Hoechst 33342 for 30 minutes and washed twice with phosphate-buffered saline (PBS), and the amount of the cells was quantified using a plate reader (FLUOstar Omega) at wavelengths of ex/em: 355/460 nm.
FIGS. 1 to 10 show the experimental results for each example and comparative example in which human skin fibroblasts collected from newborn skin were used as senescent cells.
An additional experiment was conducted using the same method as Experimental Example 1, but with a greater variety of concentrations of the treated substances.

`CN(C)CC[C@H](CSc1ccccc1)Nc1ccc(S(=O)(=O)NC(=O)c2ccc(N3CCN(Cc4ccccc4-c4ccc(Cl)cc4)CC3)cc2)cc1[N+](=O)[O-]` [ABT737] was tested, and the “cell division results when the named compound replaced KU60019 (ATM kinase inhibitor) or ABT263 (Bcl-2 inhibitor) in the combinations” value was “the results showed the same pattern”.
With `CNC(=O)c1ccc(-c2cnc3cnc(-c4ccccc4)cn23)cc1` [AZ32] the “cell division results when the named compound replaced KU60019 (ATM kinase inhibitor) or ABT263 (Bcl-2 inhibitor) in the combinations” value was “the results showed the same pattern” and the “cell rejuvenation effect of the five-component combination with the named compound as ATM kinase inhibitor or Bcl-2 inhibitor” value was “excellent cell rejuvenation effect”.
With `C/C1=C\CCC2=C[C@@H](OC2=O)c2c(C)coc2C1` [linderalactone] the “cell division results when the named compound replaced KU60019 (ATM kinase inhibitor) or ABT263 (Bcl-2 inhibitor) in the combinations” value was “the results showed the same pattern” and the “cell rejuvenation effect of the five-component combination with the named compound as ATM kinase inhibitor or Bcl-2 inhibitor” value was “excellent cell rejuvenation effect”.
